Measurements from patent US9623008B2, “Targeting abnormal DNA repair in therapy-resistant breast and pancreatic cancers” (STC.UNM, priority 2012, dated 2017).
Entries after “also recorded” stand apart in the source; their conditions may differ. Read-outs that look alike come from different tables or passages of the source.

How the values were obtained:
Type in all cases: cell-based
[1] = system: MCF7 cells following siRNA knockdown of Ku70; assay: Colony survival assay, MCF7 after siRNA knockdown of Ku70; settings: Ku70 knockdown versus siRNA control, 1 μmol/L, 10-day growth
Description: (§1) Cells were seeded at a density of 1,000 cells per well in methylcellulose-based medium in the presence of DNA ligase I/III inhibitor, L67 (0.5 μmol/L; ref. 10); PARP inhibitor, ABT888 (0.125 μmol/L); or L67 (0.5 μmol/L) and ABT888 (0.125 μmol/L) for approximately 10 days. Colonies were stained with 2-(4-iodophenyl)-3-(4-nitrophenyl)-5-phenlytetrazolium chloride (1 mg/mL) for 16 to 24 hours before evaluation. Vital colonies were counted with an automated image analysis system (Omincon FAS IV, BIOSYS GmbH). Experiments were conducted at least 3 times, and results are representative of the mean of 3 independent experiment ±SEM.
Target plus SMART pool siRNA oligonucleotides for G22P1, DNA ligase III, and Ku70 mRNAs were purchased from Dharmacon RNA Technologies. The oligonucleotides were transiently transfected into cells with Amaxa Nucleofector Kit V (VCA-1003) in Nucleofector II Amaxa Biosystems. For transfection, […] of 20 μmol/L siRNA was used per 2×10^6 cells. […] Cells were harvested for Western blotting 72 hours after transfection. siRNA nontargeting pool (Dharmacon RNA Technologies) was used as a control.

breast cancer cell lines = assay: MTT cell proliferation assay, breast cancer cell lines; settings: single agents, all the breast cancer cell lines, 72 hours; read-out: IC50, growth and viability
Description: (§2) Cells were grown in 96-well plates with DNA ligase I/III inhibitor L67 (up to 60 μmol/L) and/or the PARP inhibitor ABT888 (up to 80 μmol/L) for 72 hours. Approximately 20 hours prior to evaluation, MTT labeling reagent (MTT in PBS; Roche) was added to each well. After incubating for 4 hours with the MTT labeling reagent, solubilization solution (10% SDS in 0.01 mol/L HCl; Roche) was added to solubilize the formazan salt crystals. The results were spectrophotometrically quantified by a VersaMax Microplate Reader at a wavelength of 550 nm and a reference wavelength of 650 nm. The effect of combining the DNA repair inhibitors was analyzed by determining the combination index (CI) described by Chou and Talalay (18, 19) with Calcusyn software (version 2.0; Biosoft). This calculation takes into account of both potency (median dose, Dm or IC50) and the shape of the dose-effect curve (the m value) to calculate the CI. L67 and ABT888 were combined at fixed ratios of doses that corresponded to 0.0001, 0.001, 0.005, 0.01, 0.05, 0.1, 0.5, 1, and 10 times the individual IC50 values. Synergy, additivity, and antagonism are defined as CI<1, CI ¼ 1, and CI>1, respectively.

MCF10A = assay: MTT cell proliferation assay, MCF10A; settings: single agents, 72 hours, read-out: IC50, growth
Description: as §2

[2] = system: tumorigenic cell lines (MCF7, TAM1, TAM2, TAM3, LTLT); assay: Colony survival assay, MCF7 and therapy-resistant derivatives; settings: L67 0.5 μmol/L or ABT888 0.125 μmol/L alone, 10-day growth, compared with MCF10A
Description: as §1

Structure (SMILES) | sensitivity (colony survival) [1] | IC50 (breast cancer cell lines) [µM] | IC50 (MCF10A) [µM] | colony survival, inhibitor alone [2] | IC50 (MCF10A; Homo sapiens, MCF-10A) [µM]
N#Cc1ccc(C(c2ccc(C#N)cc2)n2cncn2)cc1 [letrozole] | decreased sensitivity | – | – | – | –
CC/C(=C(\c1ccccc1)c1ccc(OCCN(C)C)cc1)c1ccccc1 [tamoxifen] | decreased sensitivity | – | – | – | –
Cc1c(Br)cc(NCC(=O)NN=Cc2cc([N+](=O)[O-])ccc2O)cc1Br [L67] | – | ~6 | ~6 | small reductions; also recorded: little effect | –
C[C@]1(c2nc3c(C(N)=O)cccc3[nH]2)CCCN1 [ABT888, Veliparib] | – | ~8 | – | small reductions | ~10
